Measured values: patent publication US7759345B2, “Antitumoral derivatives of ET-743” (priority 2001, dated 2010)

Columns and labels:
[1] = tested on: Liver
Excerpt: (§9) Toxicity was asssessed by the methods reported in Toxicology in Vitro, 15 (2001) 571-577, J. Luber Narod et al.: “Evaluation of the use of in vitro methodolodies as tools for screening new compounds for potential in vivo toxicity”.

[2] = tested on: DU-145; assay: Inhibition of cells growth by colorimetric assay (SRB), DU-145; assay type: cell-based
Method in brief: (§1)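 Using sulforhodamine B, cell growth and viability are quantified after a 48 h drug exposure of cells maintained in RPMI 1640/10% FBS at 37 °C, 5% CO2. Concentrations span 10 to 10^−8 μg/ml; optical density is read at 490 nm.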

[3] = tested on: OVCAR-3; assay: Inhibition of cells growth by colorimetric assay (SRB), OVCAR-3; assay type: cell-based
Procedure: (§2) 2°.—Inhibition of Cells Growth by Colorimetric Assay.
(§3) A colorimetric type of assay, using sulforhodamine B (SRB) reaction has been adapted for a quantitative measurement of cell growth and viability [following the technique described by Philip Skehan, et al. (1990), New colorimetric cytotoxicity assay for anticancer drug screening, J. Natl. Cancer Inst., 82:1107-1112]
(§4) This form of the assay employs 96 well cell culture microplates of 9 mm diameter (Faircloth, 1988; Mosmann, 1983). Most of the cell lines are obtained from American Type Culture Collection (ATCC) derived from different human cancer types.
(§5) Cells are maintained in RPMI 1640 10% FBS, supplemented with 0.1 g/l penicillin and 0.1 g/l streptomycin sulfate and then incubated at 37° C., 5% CO2 and 98% humidity. For the experiments, cells were harvested from subconfluent cultures using trypsin and resuspended in fresh medium before plating.
(§6) Cells are seeded in 96 well microtiter plates, at 5×10^3 cells per well in aliquots of 195 μl medium, and they are allowed to attach to the plate surface by growing in drug free medium for 18 hours. Afterward, samples are added in aliquots of 5 μl in a ranging from 10 to 10^−8 μg/ml, dissolved in DMSO/EtOH/PBS (0.5:0.5:99). After 48 hours exposure, the antitumor effect are measured by the SRB methodology: cells are fixed by adding 50 μl of cold 50% (wt/vol) trichloroacetic acid (TCA) and incubating for 60 minutes at 4° C. Plates are washed with deionized water and dried. One hundred μl of SRB solution (0.4% wt/vol in 1% acetic acid) is added to each microtiter well and incubated for 10 minutes at room temperature. Unbound SRB is removed by washing with 1% acetic acid. Plates are air dried and bound stain is solubilized with Tris buffer. Optical densities are read on a automated spectrophotometric plate reader at a single wavelength of 490 nm.
The values for mean+/−SD of data from triplicate wells are calculated. Some parameters for cellular responses can be calculated: GI=growth inhibition, TGI=total growth inhibition (cytostatic effect) and LC=cell killing (cytotoxic effect). […]

[4] = tested on: Skeletal
Excerpt: as §9

[5] = tested on: HT-29; assay: Inhibition of cells growth by colorimetric assay (SRB), HT-29; assay type: cell-based
Method in brief: as §1

[6] = tested on: MDA-MB-231; assay: Inhibition of cells growth by colorimetric assay (SRB), MDA-MB-231; assay type: cell-based
Procedure: as §2, §3, §4, §5, §6
(§7) The values for mean+/−SD of data from triplicate wells are calculated. Some parameters for cellular responses can be calculated: GI=growth inhibition, TGI=total growth inhibition (cytostatic effect) and LC=cell killing (cytotoxic effect).
(§8) Obtained results may predict the usefulness of a certain drug as a potential cancer treatment. For this technique, compounds which show GI50 values smaller than 10 μg/ml are selected to continue with further studies. GI50's data allow to predict that not only could a drug be cystostatic, but also it could have a potential in terms of tumor reduction.

[7] = tested on: A-549; assay: Inhibition of cells growth by colorimetric assay (SRB), A-549; assay type: cell-based
Method in brief: as §1

[8] = tested on: SK-MEL-28; assay: Inhibition of cells growth by colorimetric assay (SRB), SK-MEL-28; assay type: cell-based
Method in brief: as §1

[9] = tested on: Myelo
Excerpt: as §9

[10] = tested on: A-498; assay: Inhibition of cells growth by colorimetric assay (SRB), A-498; assay type: cell-based
Procedure: as §2, §3, §4, §5, §6, §7, §8

[11] = tested on: Heart
Excerpt: as §9

[12] = tested on: SW620; assay: Inhibition of cells growth by colorimetric assay (SRB), SW620; assay type: cell-based
Procedure: as §2, §3, §4, §5, §6, §7, §8

[13] = tested on: Kidney
Excerpt: as §9

[14] = tested on: MCF-7; assay: Inhibition of cells growth by colorimetric assay (SRB), MCF-7; assay type: cell-based
Procedure: as §2, §3, §4, §5, §6, §7, §8

## COc1cc2c(cc1OC(=O)/C=C/c1ccccc1)CCN[C@]21CS[C@@H]2c3c(OC(C)=O)c(C)c4c(c3[C@H](COC1=O)N1C2[C@@H]2N[C@@H](Cc3cc(C)c(OC)c(O)c32)[C@@H]1O)OCO4 (some centres unmarked) [Compound 212]
[1]
  Toxicity Data Liver: 8.68E-08
[2]; Homo sapiens, DU-145, 48 h, SRB assay, 48 hours exposure, read-out: DU-145 GI50
  GI50: 0.114 nM
[2]; Homo sapiens, DU-145, 48 h, read-out: DU-145 LC50, SRB assay, 48 hours exposure
  CC50: 11.4 nM
[2]; SRB assay, 48 hours exposure
  DU-145 TGI: 6.83E-10
[3]; Homo sapiens, OVCAR-3, 48 h, read-out: OVCAR LC50
  CC50: 2280 nM
[3]; Homo sapiens, OVCAR-3, SRB assay, 48 hours exposure
  GI50: 0.342 nM
[3]; SRB assay, 48 hours exposure
  OVCAR TGI: 3.42E-09
[4]
  Toxicity Data Skeletal: 2.21E-08
[5]; Homo sapiens, HT-29, 48 h, SRB assay, 48 hours exposure, read-out: HT-29 GI50
  GI50: 2.28 nM
[5]; Homo sapiens, HT-29, 48 h, read-out: HT-29 LC50, SRB assay, 48 hours exposure
  LC50 (concentration for 50% cell killing): 11.4 nM
[5]; SRB assay, 48 hours exposure
  HT-29 TGI: 4.56E-09
[6]; Homo sapiens, MDA-MB-231, 48 h, read-out: MB-231 LC50
  CC50: 114 nM
[6]; Homo sapiens, MDA-MB-231, SRB assay, 48 hours exposure, read-out: MB-231 GI50
  GI50: 0.228 nM
[6]; SRB assay, 48 hours exposure
  MB-231 TGI: 5.69E-09
[7]; Homo sapiens, A549, 48 h, read-out: A-549 GI50
  GI50: 9.11 nM
[7]; Homo sapiens, A549, 48 h, read-out: A-549 LC50, SRB assay, 48 hours exposure
  LC50 (concentration for 50% cell killing): 114 nM
[7]; SRB assay, 48 hours exposure
  A-549 TGI: 2.28E-08
[8]; Homo sapiens, SK-MEL-28, 48 h, SRB assay, 48 hours exposure, read-out: MEL-28 GI50
  GI50: 1.14 nM
[8]; Homo sapiens, SK-MEL-28, 48 h, read-out: MEL-28 LC50, SRB assay, 48 hours exposure
  CC50: 9.11 nM
[8]; SRB assay, 48 hours exposure
  MEL-28 TGI: 3.42E-09
[9]
  Toxicity Data Myelo: 8.58E-09
[10]; Homo sapiens, A498, 48 h, read-out: A-498 LC50
  LC50: 1140 nM
[10]; Homo sapiens, A498, SRB assay, 48 hours exposure, read-out: A-498 GI50
  GI50: 2.28 nM
[10]; SRB assay, 48 hours exposure
  A-498 TGI: 1.14E-08
[11]
  Toxicity Data Heart: 3.20E-08
[12]; Homo sapiens, SW-620, 48 h, read-out: SW-620 LC50
  LC50: 2280 nM
[12]; Homo sapiens, SW-620, SRB assay, 48 hours exposure, read-out: SW-620 GI50
  GI50: 0.0228 nM
[12]; SRB assay, 48 hours exposure
  SW-620 TGI: 1.14E-08
[13]
  Toxicity Data Kidney: 3.34E-09
[14]; Homo sapiens, MCF7, 48 h, read-out: MCF LC50
  CC50: 342 nM
[14]; Homo sapiens, MCF7, SRB assay, 48 hours exposure, read-out: MCF GI50
  GI50: 0.342 nM
[14]; SRB assay, 48 hours exposure
  MCF TGI: 1.14E-08
